Results on 19 molecules are retold here after patent US20130030012A1, “COMPOUNDS” (Glaxo Group Limited, priority 2011, published 2013).

The structures appear in SMILES notation. Like-named read-outs stand apart in the source and are kept apart here. A value given as a limit tells only on which side of the number the result lay.

In assay [1] the target is T1, recombinant human Lp-PLA2 (Homo sapiens, UniProt Q13093).
T1 sequence (Q13093 22-441): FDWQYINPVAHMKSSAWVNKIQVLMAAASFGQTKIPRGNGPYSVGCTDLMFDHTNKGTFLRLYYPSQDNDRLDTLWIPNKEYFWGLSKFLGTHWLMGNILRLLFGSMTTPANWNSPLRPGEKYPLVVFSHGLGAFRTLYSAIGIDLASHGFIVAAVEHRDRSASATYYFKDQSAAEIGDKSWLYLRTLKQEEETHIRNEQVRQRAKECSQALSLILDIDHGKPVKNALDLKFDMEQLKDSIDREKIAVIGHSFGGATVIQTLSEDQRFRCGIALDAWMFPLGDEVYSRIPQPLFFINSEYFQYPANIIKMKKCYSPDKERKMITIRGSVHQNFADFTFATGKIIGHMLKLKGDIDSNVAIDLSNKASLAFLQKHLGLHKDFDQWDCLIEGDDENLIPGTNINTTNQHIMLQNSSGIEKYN
Nature of the assay: Recombinant human Lp-PLA2 assay (rhLp-PLA2, PED6 assay). The class given is biochemical. As to conditions: upper limit for pIC50 in this assay is 9.3. From the text: (1) Recombinant Human Lp-PLA2 Assay (rhLp-PLA2) (Also Referred to as “PED6” Assay)
N-((6-(2,4-dinitrophenyl)amino)-hexanoyl)-2-(4,4-difluoro-5,7-dimethyl-4-bora-3a,4a-diaza-s-indacene-3-pentanoyl)-1-hexadecanoyl-sn-glycero-3-phosphoethanolamine, triethylammonium salt (PED6) is a commercially available fluorescently-labeled phospholipid, which is commercially available from Invitrogene and Molecular Probes. There is a quenching […] and a Bodipy fluorescein (FL) group in the sn2 position. Upon cleavage with Lp-PLA2, the Bodipy FL group is liberated and then may result in an increase in fluorescence. Inhibitors of Lp-PLA2 therefore prevent this cleavage and no fluorescent increase is observed.
The PED6 assay was run as an unquenched 10 μL assay. The source plate containing the compounds to be tested was prepared by making 1:3 (by volume) serial dilution of the compounds within DMSO on 384-well microplate. Then, 0.01 μL of the compounds on compound source plate were transferred into 384 well Greiner 784076 (black) plates using ECHO liquid dispenser. 5 μL of recombinant human Lp-PLA2 enzyme (4 nM (or 110 pM) rhLp-PLA2 in assay buffer of 50 mM HEPES, pH 7.4, 150 mM NaCl, 1 mM CHAPS) was added to each well of the plate. Plates were centrifuged for 10 sec at 500 rpm. After 30 minutes preincubation, 5 μL of substrate ([…] (or 5 μM) PED6 [from 5 mM DMSO stock] in assay buffer of 50 mM HEPES, pH 7.4, 150 mM NaCl, 1 mM CHAPS) was added to 384 well Greiner 784076 (black) plates. Plates were centrifuged for 10 sec at 500 rpm. The plate was covered to protect it from light and incubated for 20 min at room temperature. The plates were read for fluorescence intensity at ex: 480/em: 540 using ViewLux microplate imager for Envision spectrofluoroimeters pIC50 data, curve and QC analysis was conducted by using XL fit module in Excel.
The compounds described below were tested generally according to the PED6 assay described above.

Assay [2] concerns the target T2, Lp-PLA2 in human plasma (Homo sapiens, UniProt Q13093).
T2 construct: from tissue; host or cells: pooled human plasma
T2 sequence (Q13093 22-441): T1 sequence (Q13093 22-441)
Nature of the assay: Lp-PLA2 human plasma assay (Thio-PAF assay). The class given is biochemical. As to conditions: pooled human plasma; read-out: pIC50 values in the thio-PAF assay (converted). From the text:
The human plasma assay utilizes a thioester analog of PAF (phosphatidylcholine), where hydrolysis yields to the formation of a phospholipid containing a free thiol group. The amount of thiol is quantitated continuously by reacting with CPM (7-diethylamino-3-(4′-maleimidylphenyl)-4-methylcoumarin), a maleimide which increases in fluoresence after Michael addition of thiols. This assay may detect the activity of Lp-PLA2 in human plasma, as determined by specific inhibition by Lp-PLA2 inhibitors.
The thio-PAF assay was run as a quenched 15 μL assay. Compounds source plate was prepared by making 1:3 (by volume) serial dilution of the compounds into pure DMSO on 384-well microplate. 0.01 μL of compounds on compound source plate were transferred to 384 well Greiner 784076 (black) low-volume plates by ECHO liquid dispenser. 8 μL pooled human plasma, which was previously aliquoted and frozen, was added. Plates were centrifuged for 10 sec at 500 rpm. After 30 minutes preincubation, 2 μL of substrate solution comprising 2.5 mM 2-thio-PAF [from ethanol stock], […] CPM [from a DMSO stock] and 3.2 mM NEM (N-ethylmaleimide) [made fresh daily in DMSO] in assay buffer of 50 mM HEPES, pH 7.4, 150 mM NaCl, 1 mM CHAPS was added to 384 well Greiner 784076 (black) low-volume plates by BRAVO liquid handling station. After 2 mins, reaction was quenched with 5 μL of 5% aqueous trifluoroacetic acid (TFA). Plates were covered to protect from light and incubated for 40 min at room temperature. Plates were read at ex: 380/em: 485 using—Envision microplate reader. pIC50 data, curve and QC analysis was conducted by using XLFit module in Excel.

Setting [3] is: Table 1, read-out: rhLp-PLA2 (PED6 assay) (pIC50) (converted).
Where [4] appears, read: read-out: pIC50 values in the PED6 assay (converted).

Turning to `CN1CCCn2c1cc(OCc1ccc(Oc3cc(F)cc(F)c3)c(F)c1)nc2=O` [Example 58, 8-((4-(3,5-difluorophenoxy)-3-fluorobenzyl)oxy)-1-methyl-3,4-dihydro-1H-pyrimido[1,6-a]pyrimidin-6(2H)-one], the IC50 in assay [1] (setting [3]) is below 0.501 nM; in assay [1] (setting [4]), at most 1 nM; in assay [2], at most 100 nM.

For the molecule `CN1CCCn2c1cc(OCc1ccc(Oc3ccc(F)cc3)c(F)c1)nc2=O` [Example 74, 8-((3-fluoro-4-(4-fluorophenoxy)benzyl)oxy)-1-methyl-3,4-dihydro-1H-pyrimido[1,6-a]pyrimidin-6(2H)-one], the IC50 in assay [1] (setting [4]) is at most 10 nM; in assay [2], at most 1000 nM.

For the molecule `O=c1nc(OCc2cc(F)c(Oc3ccc(C(F)(F)F)nc3)c(F)c2)cc2n1CCCN2` [Example 75, 8-((3,5-difluoro-4-((6-(trifluoromethyl)pyridin-3-yl)oxy)benzyl)oxy)-3,4-dihydro-1H-pyrimido[1,6-a]pyrimidin-6(2H)-one], the IC50 in assay [1] (setting [3]) is below 0.501 nM; in assay [1] (setting [4]), at most 1 nM; in assay [2], at most 100 nM.

With `CN1CCCn2c1cc(OCc1ccc(Oc3cccnc3)c(C#N)c1)nc2=O` [Example 76, 5-(((1-methyl-6-oxo-2,3,4,6-tetrahydro-1H-pyrimido[1,6-a]pyrimidin-8-yl)oxy)methyl)-2-(pyridin-3-yloxy)benzonitrile], the IC50 in assay [1] (setting [3]) was 1.26 nM; in assay [1] (setting [4]), at most 10 nM; in assay [2], at most 100 nM.

As for `CN1CCCn2c1cc(OCc1ccc(Oc3cccc(C(F)(F)F)c3)cc1)nc2=O` [Example 77, 1-methyl-8-((4-(3-(trifluoromethyl)phenoxy)benzyl)oxy)-3,4-dihydro-1H-pyrimido[1,6-a]pyrimidin-6(2H)-one], the IC50 is at most 10 nM in assay [1] (setting [4]) and at most 1000 nM in assay [2].

Turning to `CN1CCCn2c1cc(OCc1cc(F)c(Oc3cccc(F)c3)c(F)c1)nc2=O` [Example 78, 8-((3,5-difluoro-4-(3-fluorophenoxy)benzyl)oxy)-1-methyl-3,4-dihydro-1H-pyrimido[1,6-a]pyrimidin-6(2H)-one], the IC50 in assay [1] (setting [4]) is at most 10 nM; in assay [2] it was at most 1000 nM.

Take `CN1CCCn2c1cc(OCc1cc(F)c(Oc3cc(F)cc(F)c3)c(F)c1)nc2=O` [Example 79, 8-((4-(3,5-difluorophenoxy)-3,5-difluorobenzyl)oxy)-1-methyl-3,4-dihydro-1H-pyrimido[1,6-a]pyrimidin-6(2H)-one]: the IC50 is 0.794 nM in assay [1] (setting [3]), at most 1 nM in assay [1] (setting [4]) and at most 100 nM in assay [2].

`CN1CCCn2c1cc(OCc1ccc(Oc3cccc(F)c3)c(C#N)c1)nc2=O` [Example 80, 2-(3-fluorophenoxy)-5-(((1-methyl-6-oxo-2,3,4,6-tetrahydro-1H-pyrimido[6-a]pyrimidin-8-yl)oxy)methyl)benzonitrile]: the IC50 in assay [1] (setting [4]) was at most 1 nM; in assay [2], at most 100 nM.

Regarding `CN1CCCn2c1cc(OCc1cc(F)c(Oc3cccc(C(F)(F)F)c3)c(F)c1)nc2=O` [Example 81, 8-((3,5-difluoro-4-(3-(trifluoromethyl)phenoxy)benzyl)oxy)-1-methyl-3,4-dihydro-1H-pyrimido[1,6-a]pyrimidin-6(2H)-one], the IC50 is at most 1 nM in assay [1] (setting [4]) and at most 100 nM in assay [2].

For the molecule `CN1CCCn2c1cc(OCc1cc(F)c(Oc3ccc(Cl)c(F)c3)c(F)c1)nc2=O` [Example 82, 8-((4-(4-chloro-3-fluorophenoxy)-3,5-difluorobenzyl)oxy)-1-methyl-3,4-dihydro-1H-pyrimido[1,6-a]pyrimidin-6(2H)-one], the IC50 in assay [1] (setting [4]) is at most 1 nM; in assay [2], at most 100 nM.

Take `CN1CCCn2c1cc(OCc1cc(F)c(Oc3ccc(F)c(Cl)c3)c(F)c1)nc2=O` [Example 83, 8-((4-(3-chloro-4-fluorophenoxy)-3,5-difluorobenzyl)oxy)-1-methyl-3,4-dihydro-1H-pyrimido[1,6-a]pyrimidin-6(2H)-one]: the IC50 in assay [1] (setting [3]) was below 0.501 nM; in assay [1] (setting [4]), at most 1 nM; in assay [2], at most 100 nM.

Take `CN1CCCn2c1cc(OCc1ccc(Oc3ccc(F)c(Cl)c3)c(C#N)c1)nc2=O` [Example 84, 2-(3-chloro-4-fluorophenoxy)-5-(((1-methyl-6-oxo-2,3,4,6-tetrahydro-1H-pyrimido[1,6-a]pyrimidin-8-yl)oxy)methyl)benzonitrile]: the IC50 was at most 1 nM in assay [1] (setting [4]) and at most 100 nM in assay [2].

With `CN1CCCn2c1cc(OCc1ccc(Oc3cccc(C#N)c3)c(F)c1)nc2=O` [Example 85, 3-(2-fluoro-4-(((1-methyl-6-oxo-2,3,4,6-tetrahydro-1H-pyrimido[1,6-a]pyrimidin-8-yl)oxy)methyl)phenoxy)benzonitrile], the IC50 in assay [1] (setting [4]) is at most 10 nM; in assay [2], at most 1000 nM.

As for `CN1CCCn2c1cc(OCc1cc(F)c(Oc3ccc(F)cc3)c(F)c1)nc2=O` [Example 87, 8-((3,5-difluoro-4-(4-fluorophenoxy)benzyl)oxy)-1-methyl-3,4-dihydro-1H-pyrimido[1,6-a]pyrimidin-6(2H)-one], the IC50 in assay [1] (setting [4]) is at most 10 nM; in assay [2], at most 1000 nM.

Consider `CN1CCCn2c1cc(OCc1cc(F)c(Oc3ccc(F)c(C(F)(F)F)c3)c(F)c1)nc2=O` [Example 88, 8-((3,5-difluoro-4-(4-fluoro-3-(trifluoromethyl)phenoxy)benzyl)oxy)-1-methyl-3,4-dihydro-1H-pyrimido[1,6-a]pyrimidin-6(2H)-one], for which the results for the IC50 in assay [1] (setting [4]) and in assay [2] were at most 1 nM and at most 100 nM, respectively.

Take `CN1CCCn2c1cc(OCc1cc(F)c(Oc3ccc(C(F)(F)F)cc3)c(F)c1)nc2=O` [Example 89, 8-((3,5-difluoro-4-(4-(trifluoromethyl)phenoxy)benzyl)oxy)-1-methyl-3,4-dihydro-1H-pyrimido[1,6-a]pyrimidin-6(2H)-one]: the IC50 in assay [1] (setting [4]) was at most 10 nM; in assay [2], at most 100 nM.

Regarding `CN1CCCn2c1cc(OCc1cc(F)c(Oc3cccc(Cl)c3)c(F)c1)nc2=O` [Example 90, 8-((4-(3-chlorophenoxy)-3,5-difluorobenzyl)oxy)-1-methyl-3,4-dihydro-1H-pyrimido[1,6-a]pyrimidin-6(2H)-one], the IC50 in assay [1] (setting [4]) was at most 1 nM; in assay [2] it was at most 1000 nM.

Take `O=c1nc(OCc2cc(F)c(Oc3ccc(F)c(F)c3)c(F)c2)cc2n1CCCN2` [Example 91, 8-((4-(3,4-difluorophenoxy)-3,5-difluorobenzyl)oxy)-3,4-dihydro-1H-pyrimido[1,6-a]pyrimidin-6(2H)-one]: the IC50 in assay [1] (setting [4]) was at most 1 nM; in assay [2], at most 100 nM.

As for `N#Cc1cc(COc2cc3n(c(=O)n2)CCCN3)ccc1Oc1ccc(C(F)(F)F)cn1` [Example 92, 5-(((6-oxo-2,3,4,6-tetrahydro-1H-pyrimido[1,6-a]pyrimidin-8-yl)oxy)methyl)-2-((5-(trifluoromethyl)pyridin-2-yl)oxy)benzonitrile], the IC50 in assay [1] (setting [4]) is at most 10 nM; in assay [2], at most 100 nM.
